# In ChEMBL document CHEMBL5226279, “Mercaptoacetamide: A promising zinc-binding group for the discovery of selective histone deacetylase 6 inhibitors” (Eur J Med Chem, 2021):
# Columns and labels:
# [1] = Stability in human plasma assessed as half life; assay type: ADME, cell-free
# [2] = Stability in mouse plasma assessed as half life; assay type: ADME, cell-free
# [3] = Stability in rat plasma assessed as half life; assay type: ADME, cell-free
# [4] = Stability in porcine plasma assessed as half life; assay type: ADME, cell-free, Sus scrofa; conditions: pig
# [5] = target: T1, Protein deacetylase HDAC6 (Homo sapiens, UniProt Q9UBN7); assay: Inhibition of HDAC6 (unknown origin)
# T1 sequence (Q9UBN7 whole entry): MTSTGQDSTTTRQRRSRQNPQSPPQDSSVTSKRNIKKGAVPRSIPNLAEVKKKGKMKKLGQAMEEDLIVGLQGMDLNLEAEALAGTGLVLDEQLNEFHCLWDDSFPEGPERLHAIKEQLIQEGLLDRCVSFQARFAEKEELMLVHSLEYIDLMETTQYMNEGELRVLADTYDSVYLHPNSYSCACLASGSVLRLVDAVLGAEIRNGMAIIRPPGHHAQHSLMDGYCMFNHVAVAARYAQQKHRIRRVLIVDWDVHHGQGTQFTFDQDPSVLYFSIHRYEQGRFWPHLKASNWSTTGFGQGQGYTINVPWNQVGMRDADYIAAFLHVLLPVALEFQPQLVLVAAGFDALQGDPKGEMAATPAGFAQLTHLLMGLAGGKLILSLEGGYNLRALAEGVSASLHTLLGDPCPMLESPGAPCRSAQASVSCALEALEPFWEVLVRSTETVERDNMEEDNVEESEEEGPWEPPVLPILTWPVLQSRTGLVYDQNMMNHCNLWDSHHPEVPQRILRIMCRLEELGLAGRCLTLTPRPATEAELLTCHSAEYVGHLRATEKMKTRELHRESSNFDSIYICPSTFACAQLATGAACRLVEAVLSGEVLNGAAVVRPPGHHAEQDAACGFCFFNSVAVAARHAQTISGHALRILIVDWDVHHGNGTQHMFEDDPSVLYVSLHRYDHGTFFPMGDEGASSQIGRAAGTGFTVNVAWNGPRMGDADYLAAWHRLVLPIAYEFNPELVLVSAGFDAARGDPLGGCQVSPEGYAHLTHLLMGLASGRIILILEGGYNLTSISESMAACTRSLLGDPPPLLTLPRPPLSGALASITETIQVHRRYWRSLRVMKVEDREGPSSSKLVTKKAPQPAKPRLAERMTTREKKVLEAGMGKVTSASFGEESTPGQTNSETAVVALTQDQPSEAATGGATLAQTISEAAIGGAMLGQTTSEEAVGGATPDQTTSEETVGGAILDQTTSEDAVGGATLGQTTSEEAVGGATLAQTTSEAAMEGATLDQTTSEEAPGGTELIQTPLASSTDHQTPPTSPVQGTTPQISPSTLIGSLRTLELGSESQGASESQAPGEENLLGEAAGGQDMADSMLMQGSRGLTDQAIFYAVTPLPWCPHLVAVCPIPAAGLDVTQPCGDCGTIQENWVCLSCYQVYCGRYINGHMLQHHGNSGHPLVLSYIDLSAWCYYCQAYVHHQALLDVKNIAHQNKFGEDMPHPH
# [6] = Stability in dog liver microsomes assessed as half life; assay type: ADME, Canis lupus familiaris, Microsome
# [7] = Solubility of compound in PBS at pH 7.4 at 37 degreeC measured after 24 hrs; assay type: physicochemical
# [8] = Half life in mouse at 400 mg/kg, ip; assay type: ADME, organism-based; conditions: in vivo
# [9] = Tmax in mouse at 400 mg/kg, ip; assay type: ADME, organism-based; conditions: in vivo
# [10] = Solubility of compound in HCl at pH 1.2 at 37 degreeC measured after 24 hrs; assay type: physicochemical
# [11] = Clearance in mouse at 400 mg/kg, ip; assay type: ADME, organism-based; conditions: in vivo
# [12] = Lipophilicity, logD of the compound at 37 degreeC; assay type: physicochemical; conditions: octanol/water
# [13] = Cmax in mouse at 400 mg/kg, ip; assay type: ADME, organism-based; parameters: dose 400 mg/kg, route ip; conditions: in vivo
# [14] = Stability in human liver microsomes assessed as half life; assay type: ADME, Microsome
# [15] = Apparent permeability across basolateral to apical side in human Caco-2 cells; assay type: ADME, cell-based
# [16] = Antialzheimer activity in rat Primary cortical neurons assessed as reduction in amyloid beta 40 level incubated for 24 hrs by ELISA relative to control; assay type: functional, Cortical neurone; parameters: scale not given: the % may be the effect or the level left
# [17] = Apparent permeability across apical to basolateral side in human Caco-2 cells; assay type: ADME, cell-based
# [18] = Stability in rat liver microsomes assessed as half life; assay type: ADME, Microsome
# [19] = AUC in mouse at 400 mg/kg, ip; assay type: ADME, organism-based; parameters: dose 400 mg/kg, route ip; conditions: in vivo
# N2a [20] = assay: Antialzheimer activity in mouse N2a cells overexpressing hAPP assessed as reduction in human amyloid beta 42 level at 1 to 5 uM incubated for 24 hrs by ELISA relative to control; assay type: functional; parameters: scale not given: the % may be the effect or the level left; conditions: dose 1-5 µM
# N2a [21] = assay: Antialzheimer activity in mouse N2a cells overexpressing hAPP assessed as reduction in human amyloid beta 40 level at 1 to 5 uM incubated for 24 hrs by ELISA relative to control; assay type: functional; parameters: scale not given: the % may be the effect or the level left; conditions: dose 1-5 µM
# Histone deacetylase 8 [22] = target: T2, Histone deacetylase 8 (Homo sapiens, UniProt Q9BY41); assay: Inhibition of human HDAC8 incubated for 90 mins by fluorescence assay
# T2 sequence (Q9BY41 whole entry): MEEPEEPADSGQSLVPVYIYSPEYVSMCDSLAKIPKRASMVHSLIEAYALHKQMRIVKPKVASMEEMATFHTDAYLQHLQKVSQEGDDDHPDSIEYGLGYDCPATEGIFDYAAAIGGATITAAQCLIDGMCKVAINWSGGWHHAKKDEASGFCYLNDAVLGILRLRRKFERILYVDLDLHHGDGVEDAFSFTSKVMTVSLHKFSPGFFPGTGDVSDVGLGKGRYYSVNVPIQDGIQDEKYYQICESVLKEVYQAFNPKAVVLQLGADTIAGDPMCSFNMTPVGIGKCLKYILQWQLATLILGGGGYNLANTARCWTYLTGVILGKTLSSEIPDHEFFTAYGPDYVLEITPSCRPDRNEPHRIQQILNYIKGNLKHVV
# [23] = target: T1, Protein deacetylase HDAC6; assay: Inhibition of human HDAC6
# Histone deacetylase 1 [24] = target: T3, Histone deacetylase 1 (Homo sapiens, UniProt Q13547); assay: Inhibition of human HDAC1
# T3 sequence (Q13547 whole entry): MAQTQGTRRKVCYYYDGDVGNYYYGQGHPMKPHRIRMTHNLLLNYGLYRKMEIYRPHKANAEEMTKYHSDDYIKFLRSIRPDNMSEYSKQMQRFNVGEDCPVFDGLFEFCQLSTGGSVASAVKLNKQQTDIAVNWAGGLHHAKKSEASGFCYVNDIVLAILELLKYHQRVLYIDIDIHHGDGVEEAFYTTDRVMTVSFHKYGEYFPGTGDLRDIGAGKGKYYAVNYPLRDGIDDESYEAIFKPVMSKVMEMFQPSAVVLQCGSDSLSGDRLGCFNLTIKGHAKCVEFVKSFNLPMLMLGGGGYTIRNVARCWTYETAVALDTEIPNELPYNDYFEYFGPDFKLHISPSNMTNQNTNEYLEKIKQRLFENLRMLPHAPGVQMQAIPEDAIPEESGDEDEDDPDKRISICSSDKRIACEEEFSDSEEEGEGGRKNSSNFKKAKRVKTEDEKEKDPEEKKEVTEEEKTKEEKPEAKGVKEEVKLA
# [25] = target: T4, Polyamine deacetylase HDAC10 (Homo sapiens, UniProt Q969S8); assay: Inhibition of human HDAC10 using FAM-labeled acetylated peptide as substrate incubated for 17 hrs by fluorescence based assay
# T4 sequence (Q969S8 whole entry): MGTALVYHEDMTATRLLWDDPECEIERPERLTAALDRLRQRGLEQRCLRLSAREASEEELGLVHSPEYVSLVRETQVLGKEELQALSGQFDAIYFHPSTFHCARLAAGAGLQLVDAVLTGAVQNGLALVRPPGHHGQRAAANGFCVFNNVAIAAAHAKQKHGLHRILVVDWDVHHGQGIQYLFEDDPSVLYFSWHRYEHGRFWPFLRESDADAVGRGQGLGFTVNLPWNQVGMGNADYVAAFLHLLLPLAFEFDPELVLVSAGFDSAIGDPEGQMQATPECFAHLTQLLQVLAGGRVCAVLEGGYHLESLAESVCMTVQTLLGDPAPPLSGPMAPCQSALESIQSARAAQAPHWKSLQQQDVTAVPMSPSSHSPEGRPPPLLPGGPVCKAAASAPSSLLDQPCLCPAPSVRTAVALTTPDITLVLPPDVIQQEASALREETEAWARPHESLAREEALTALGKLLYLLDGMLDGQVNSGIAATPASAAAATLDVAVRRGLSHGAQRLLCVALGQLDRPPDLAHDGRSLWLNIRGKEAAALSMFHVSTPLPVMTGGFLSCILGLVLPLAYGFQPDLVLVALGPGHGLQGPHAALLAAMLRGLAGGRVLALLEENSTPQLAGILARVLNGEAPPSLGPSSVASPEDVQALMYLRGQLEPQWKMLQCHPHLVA
# Histone deacetylase 8 [26] = target: T2, Histone deacetylase 8; assay: Inhibition of human HDAC8 using FAM-labeled acetylated peptide as substrate incubated for 17 hrs by fluorescence based assay
# Histone deacetylase 3 = Histone deacetylase 3 (Homo sapiens, UniProt O15379); assay: Inhibition of human HDAC3 using FAM-labeled acetylated peptide as substrate incubated for 17 hrs by fluorescence based assay
# Chain of Histone deacetylase 3 (O15379 whole entry): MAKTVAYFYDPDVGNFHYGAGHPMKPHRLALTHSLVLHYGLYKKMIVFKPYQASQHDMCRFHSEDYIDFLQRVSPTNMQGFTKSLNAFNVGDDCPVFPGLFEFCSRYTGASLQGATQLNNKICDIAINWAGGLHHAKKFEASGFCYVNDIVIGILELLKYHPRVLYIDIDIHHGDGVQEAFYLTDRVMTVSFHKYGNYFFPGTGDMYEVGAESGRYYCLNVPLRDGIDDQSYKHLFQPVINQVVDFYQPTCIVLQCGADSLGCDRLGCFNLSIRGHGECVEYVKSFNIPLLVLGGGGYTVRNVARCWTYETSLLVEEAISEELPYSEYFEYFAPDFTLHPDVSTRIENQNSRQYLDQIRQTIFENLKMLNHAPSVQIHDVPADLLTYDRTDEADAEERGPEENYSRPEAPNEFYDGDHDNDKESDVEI
# [27] = target: T1, Protein deacetylase HDAC6; assay: Inhibition of human HDAC6 using FAM-labeled acetylated peptide as substrate incubated for 17 hrs by fluorescence based assay
# Histone deacetylase 1 [28] = target: T3, Histone deacetylase 1; assay: Inhibition of human HDAC1 using FAM-labeled acetylated peptide as substrate incubated for 17 hrs by fluorescence based assay
# Histone deacetylase 2 = Histone deacetylase 2 (Homo sapiens, UniProt Q92769); assay: Inhibition of human HDAC2 using FAM-labeled acetylated peptide as substrate incubated for 17 hrs by fluorescence based assay
# Chain of Histone deacetylase 2 (Q92769 whole entry): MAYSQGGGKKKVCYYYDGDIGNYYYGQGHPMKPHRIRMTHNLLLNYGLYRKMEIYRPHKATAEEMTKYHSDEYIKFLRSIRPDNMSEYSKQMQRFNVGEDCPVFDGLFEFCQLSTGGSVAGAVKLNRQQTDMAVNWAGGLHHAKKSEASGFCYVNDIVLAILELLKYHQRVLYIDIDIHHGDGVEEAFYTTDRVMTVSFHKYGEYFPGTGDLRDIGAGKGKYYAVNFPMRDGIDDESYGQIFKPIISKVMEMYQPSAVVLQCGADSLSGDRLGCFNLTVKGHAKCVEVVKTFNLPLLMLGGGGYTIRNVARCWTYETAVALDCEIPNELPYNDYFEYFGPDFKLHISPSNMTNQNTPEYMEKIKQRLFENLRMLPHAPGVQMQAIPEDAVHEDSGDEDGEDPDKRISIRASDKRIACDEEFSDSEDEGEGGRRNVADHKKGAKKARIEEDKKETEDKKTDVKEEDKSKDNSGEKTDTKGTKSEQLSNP
SMILES,half-life [1],half-life [2],half-life [3],half-life [4],half-life [6],solubility at 24 h [7],half-life [8],Tmax [9],solubility at 24 h [10],CL/F [11],logD [12],Cmax [13],half-life [14],Papp B→A [15],Papp A→B [17],half-life [18],AUC [19],IC50 [25],IC50 (Histone deacetylase 8 [26]),IC50 [27],further results
O=C(CS)NCCCCCC(=O)Nc1cccc2cccnc12,1.32 h,0.967 h,1.53 h,1.15 h,1.2 h,150 µg/mL,2.2 h,0.5 h,1000 µg/mL,67.5 mL/min,2.64,1810 nM,1.38 h,24.7 ×10⁻⁶ cm/s,15 ×10⁻⁶ cm/s,1.1 h,4.97 µM·h,,,,IC50 [5]: 0.02 µM; Activity [16]: 20%; Activity (N2a [20]): 20%; Activity (N2a [21]): 20%
O=C(CS)NCCCCCC(=O)Nc1ccccc1,,,,,,,,,,,,,,,,,,,,,IC50 (Histone deacetylase 8 [22]): 200 µM
CN(C)c1ccc(C(=O)NCCCCCNC(=O)CS)cc1,1.28 h,2.88 h,1.65 h,1.48 h,0.717 h,120 µg/mL,1.98 h,0.5 h,1000 µg/mL,81.2 mL/min,2.19,1540 nM,1.13 h,10 ×10⁻⁶ cm/s,7.33 ×10⁻⁶ cm/s,1.17 h,4.23 µM·h,,,,
O=C(/C=C/c1ccccc1Cl)NO,,,,,,,,,,,,,,,,,,,,,IC50 [23]: 0.1 µM; IC50 (Histone deacetylase 1 [24]): 2.2 µM
N[C@@H](Cc1c[nH]c2ccccc12)C(=O)Nc1ccccc1-c1ccc(NC(=O)CCCCCNC(=O)CS)cc1,,,,,,,,,,,,,,,,,,> 30 µM,11.3 µM,0.66 µM,IC50 (Histone deacetylase 3): 4.33 µM; IC50 (Histone deacetylase 1 [28]): 7.09 µM; IC50 (Histone deacetylase 2): > 30 µM
N[C@@H](Cc1ccccc1)C(=O)Nc1ccccc1-c1ccc(NC(=O)CCCCCNC(=O)CS)cc1,,,,,,,,,,,,,,,,,,7.22 µM,5.19 µM,0.45 µM,IC50 (Histone deacetylase 1 [28]): 2.76 µM; IC50 (Histone deacetylase 2): > 30 µM
